Assays:
[1] = tested on: ceramide-activated protein phosphatase (CAPP); test: CAPP serine/threonine phosphatase activity in vitro; format: biochemical; details: myelin basic protein phosphorylated by protein kinase A as substrate
[2] = tested on: alkaline ceramidase; test: Alkaline ceramidase activity in vitro at pH 9.0; format: biochemical, human; details: final concentrations up to 50 μM
Experimental: Measurement of ceramidase activity in HL-60 cells. Ceramidase activity in HL-60 cells was measured by a modification of the method of Gatt and Yavin (Methods Enzymol. 14:139 (1969)). Cells were disrupted by sonication in 0.25M sucrose, 1 mM EDTA, and centrifuged at 10,000×g for 10 min after which the supernatant was centrifuged at 100,000×g for 60 min. Ten μl of 1 mM ceramide substrate ([^3 H]C16 -ceramide) was mixed with 100 μl of Triton X-100 (0.1%) in chloroform/methanol, 2:1, and 100 μl of 0.2% sodium cholate in chloroform/methanol, 2:1, after which the solvent was evaporated under N2 at 70° C. To this mixture, 30 μl of water was added and the tubes were heated for 5 s in an 80° C. water bath and then put on ice. Fifty μl of the appropriate buffer depending on desired pH was added followed by 20 μl of 50 mM MgCl2 and 100 μl of cell extract. In experiments using inhibitors, the desired inhibitor was added in ethanol either with the substrate or directly to the final solution. The reaction mixture was incubated for 1 h at 37° C. The ^3 H-fatty acid products of ceramidase were separated by the addition of 2 ml of Dole's solution (isopropyl alcohol, heptane, NaOH), 1.2 ml of heptane, and 1 ml of water. After vortexing and centrifugation, the upper phase was discarded and the lower phase was washed twice with heptane and the upper phase discarded each time. Finally, 1 ml of 1N H2 SO4, and 2 ml of heptane were added, and after vortexing and centrifugation the upper phase was transferred for counting by liquid scintillation.
In order to evaluate the interactions of D- and L-e-MAPP with ceramidase, in vitro studies we conducted using cytosolic and membrane fractions from HL-60 cells. Initially, ceramidase activity was examined for pH dependence using tritium-labeled C16 -ceramide as substrate. […] The alkaline ceramidase activity was very similar to that described in fibroblasts and cerebellar tissue (Sugita et al, Biochim. Biophys. Acta 398:125 (1975), Wertz and Downing, FEBS Lett. 268:110 (1990)). In initial studies, the ability of this ceramidase to utilize D-e- and L-e-MAPP as substrates was investigated. […] These studies corroborate the cellular metabolism studies showing that L-e-MAPP is a substrate for ceramidase in vitro and in cells.
Next, the ability of D- and L-e-MAPP to interfere with hydrolysis of C16 -ceramide by ceramidase at pH 4.5 and 9.0 was evaluated. Inhibition of ceramidase activity by D-e-MAPP was compared to that by N-oleoylethanolamine, a putative inhibitor of acid ceramidase (Sugita et al, Biochim. Biophys. Acta 398:125 (1975)). […] The effects of N-oleoylethanolamine are consistent with the previously reported Ki of 700 μM (Sugita et al, Biochim. Biophys. Acta 398:125 (1975)). […] In contrast, D-e-MAPP was a relatively poor inhibitor of acid ceramidase with less than 10% inhibition of acid ceramidase at 50 μM (FIG. 6C).

[3] = biological target: T1, acid ceramidase (Homo sapiens, UniProt Q13510); details: Sugita et al, Biochim. Biophys. Acta 398:125 (1975); read-out: previously reported Ki; cited from earlier work
T1 sequence (Q13510 22-395): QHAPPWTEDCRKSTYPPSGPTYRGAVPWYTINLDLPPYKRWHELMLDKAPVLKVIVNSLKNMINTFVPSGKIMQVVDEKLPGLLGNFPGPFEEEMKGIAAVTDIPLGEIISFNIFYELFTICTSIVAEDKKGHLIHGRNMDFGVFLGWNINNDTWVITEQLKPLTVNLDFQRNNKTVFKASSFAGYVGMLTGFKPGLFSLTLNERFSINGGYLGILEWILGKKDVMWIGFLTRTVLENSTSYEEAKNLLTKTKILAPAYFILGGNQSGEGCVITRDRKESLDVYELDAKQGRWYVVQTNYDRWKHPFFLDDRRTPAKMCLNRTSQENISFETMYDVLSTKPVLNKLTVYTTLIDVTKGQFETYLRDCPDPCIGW

[4] = biological target: T1, acid ceramidase; test: Acid ceramidase activity in vitro at pH 4.5; format: biochemical; parameters: Ceramidase activity was determined from total homogenates of HL-60 cells; endogenous in cells; host or cells: HL-60 cells; details: pH 4.5, 50 μM C16-ceramide substrate
Experimental: Measurement of ceramidase activity in HL-60 cells. Ceramidase activity in HL-60 cells was measured by a modification of the method of Gatt and Yavin (Methods Enzymol. 14:139 (1969)). Cells were disrupted by sonication in 0.25M sucrose, 1 mM EDTA, and centrifuged at 10,000×g for 10 min after which the supernatant was centrifuged at 100,000×g for 60 min. Ten μl of 1 mM ceramide substrate ([^3 H]C16 -ceramide) was mixed with 100 μl of Triton X-100 (0.1%) in chloroform/methanol, 2:1, and 100 μl of 0.2% sodium cholate in chloroform/methanol, 2:1, after which the solvent was evaporated under N2 at 70° C. To this mixture, 30 μl of water was added and the tubes were heated for 5 s in an 80° C. water bath and then put on ice. Fifty μl of the appropriate buffer depending on desired pH was added followed by 20 μl of 50 mM MgCl2 and 100 μl of cell extract. In experiments using inhibitors, the desired inhibitor was added in ethanol either with the substrate or directly to the final solution. The reaction mixture was incubated for 1 h at 37° C. The ^3 H-fatty acid products of ceramidase were separated by the addition of 2 ml of Dole's solution (isopropyl alcohol, heptane, NaOH), 1.2 ml of heptane, and 1 ml of water. After vortexing and centrifugation, the upper phase was discarded and the lower phase was washed twice with heptane and the upper phase discarded each time. […]

[5] = biological target: T2, Glucosylceramide synthase (Homo sapiens, UniProt Q16739); test: Glucocerebroside (glucosylceramide) synthase assay in vitro; format: biochemical; details: 20 μM
T2 sequence (Q16739 1-394): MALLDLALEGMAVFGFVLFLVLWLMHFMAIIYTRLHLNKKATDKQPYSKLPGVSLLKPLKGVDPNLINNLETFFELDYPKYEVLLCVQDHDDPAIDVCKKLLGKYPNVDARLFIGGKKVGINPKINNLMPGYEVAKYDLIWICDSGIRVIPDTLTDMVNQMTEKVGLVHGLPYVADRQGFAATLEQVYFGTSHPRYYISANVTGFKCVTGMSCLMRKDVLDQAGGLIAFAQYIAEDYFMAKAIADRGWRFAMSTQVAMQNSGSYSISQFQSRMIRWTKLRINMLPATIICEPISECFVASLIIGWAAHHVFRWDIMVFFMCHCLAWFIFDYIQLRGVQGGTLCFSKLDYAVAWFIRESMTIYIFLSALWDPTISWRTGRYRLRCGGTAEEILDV
Experimental: Glucocerebrosidase and glucocerebroside synthase assays. In vitro assays for gluccerebrosidase and for cerebroside synthase were performed as described (Abe et al, J. Biochem. (Tokyo) 11:191 (1992)).
In addition to ceramidase, inhibition of cerebroside synthase and sphingomyelin synthase or stimulation of sphingomyelinase or cerebrosidase could result in elevations in endogenous ceramide levels. Therefore, the effects of D- and L-e-MAPP were examined on these enzyme activities in vitro and in cells.

[6] = tested on: HL-60 human myelocytic leukemia cells; test: HL-60 cell proliferation (cell counting); format: cell-based; details: HL-60, 3 μM D-MAPP plus fumonisin B1, 48 h
Experimental: Proliferation and cell cycle studies. HL-60 human myelocytic leukemia cells (obtained from the American Type Culture Collection) were grown in RPMI 1640 medium containing 10 fetal calf serum at 37° C. in 5% CO2 incubator. For proliferation and cell cycle studies, cells were resuspended at a density of 2×10^5 cells/ml in serum-free media containing insulin (5 mg/liter) and transferrin (5 mg/liter) and sodium selenite (5 μg/liter) for 2-4 h. Cells were then treated with the indicated compounds. Ethanol concentration was always maintained at less than 0.1%. Cell proliferation was determined by counting cells using a hemacytometer, cell viability was evaluated by trypan blue dye exclusion, and cell cycle analysis was determined by propidium iodide flow cytometry as described (Chao et al, J. Biol. Chem. 267:23459 (1992)).
In structure-function analysis of ceramide-mediated growth suppression using amides of phenylaminoalcohols, D- and L-erythro-MAPP were employed. In these studies, HL-60 cells were treated with 5 μM of either D-e-MAPP or L-e-MAPP, and growth was determined at the indicated time points (FIG. 2A).
Studies were conducted examining the uptake and metabolism of D- and L-MAPP. In the first set of studies, the effect of duration of exposure of HL-60 cells to D-e-MAPP on the bioactivity of the molecule was determined. D-e-MAPP added to cells could be washed off by repeated sedimentation and washing of cells. Thus, after five cycles of washing, less than 10% of D-MAPP remained associated with the cell pellet-compared to unwashed cells (FIG. 5A).

CCCCCCCCCCCCC/C=C/[C@@H](O)[C@H](CO)NC(=O)CCCCC [C6 -ceramide, reference compound]
activation of CAPP in vitro [1]: concentration-dependent stimulation of activity

CCCCCCCC/C=C\CCCCCCCC(=O)NCCO [N-oleoylethanolamine, reference compound]
inhibition of alkaline ceramidase in vitro [2]: less than 10% | Ki [3]: 700 µM | IC50 [4]: ~500 µM

CCCCCCCCCCCCCC(=O)NC(CN1CCOCC1)C(O)c1ccccc1 (stereo not shown) [PMMP, reference compound]
Glucosylceramide synthase activity ([5]; Control 1.009 ± 0.0424): 0.208 ± 0.008 nmol/h/mg protein | inhibition of cerebroside synthase activity ([5]; Table I): significant inhibition

CCCCC(C)C(OC(=O)CC(CC(=O)O)C(=O)O)C(CC(C)CC(O)CCCCC(O)CC(O)C(C)N)OC(=O)CC(CC(=O)O)C(=O)O (stereo not shown) [fumonisin B1, reference compound]
effect on growth suppression by D-e-MAPP [6]: did not inhibit the effects of D-e-MAPP on growth

Reference: patent US5851782A, “Inhibitors of ceramidase” (Duke University, priority 1996, dated 1998)
